From ChEMBL document CHEMBL1131850, “The synthesis and anti-MRSA activity of amidinium-substituted 2-dibenzofuranylcarbapenems” (1999) come the findings set out here.

A short description of test [1]: Compound was tested in vitro for its activity against Methicillin-Resistant Coagulase Negative Staphylococci(MRCNS 9). The class given is functional. To be noted: Staphylococcus.
A short description of test [2]: Compound was evaluated in vivo for percent binding to human albumin fraction V. The class given is functional, organism-based.
The species entered for test [3] is Mus musculus. The test is described as follows: Effective dose against Staphylococcus aureus MB2985 (methicillin-susceptible) in mouse systemic infection model. The class given is functional.
Test [4] can be described thus: In vivo inhibitory activity against Staphylococcus aureus MB2985 (methicillin-susceptible) in mouse systemic infection model. The class given is functional.
The species entered for test [5] is Mus musculus. The test is described as follows: Plasma MIC against staphylococcus aureus infection in mice in presence of human albumin fraction V (21.5 mg/mL). The class given is functional, organism-based.
The subject of test [6] is Staphylococcus aureus. The test is described as follows: Compound was tested in vitro for its activity against methicillin-Resistant Staphylococcus Aureus(MRSA 12). The class given is functional.
Test [7] deals with Mus musculus. Put plainly: Compound was evaluated in vivo for percent binding to human albumin fraction V. The class given is functional, organism-based.
The subject of test [8] is Mus musculus. The test is described as follows: Compound was evaluated in vivo for plasma MIC in presence of human albumin fraction V (21.5 mg/mL). The class given is functional, organism-based.

Structures are written as SMILES. ≈ marks a conversion by molar mass, not a printed value.

With `C[C@@H](O)[C@H]1C(=O)N2C(C(=O)O)=C(c3cc(C4=NCCN4)c4oc5ccccc5c4c3)C[C@H]12`, in test [1], the MIC50 (in general, the lowest concentration that inhibits either 50% of growth or 50% of the strains tested, depending on the study) worked out at 1 µg/mL (≈ 2.32 µM) and the MIC90 (commonly the lowest concentration that inhibits either 90% of growth or 90% of the strains tested, depending on the study) was determined as 1 µg/mL (≈ 2.32 µM). The same compound registered a PPB in test [2] of 34%. Besides, it took a dose of 0.135 mg/kg to reach the 50% effect level in test [3] (ED50). Moreover, the minimum inhibitory concentration (MIC) (as a rule, the lowest concentration found to suppress growth) in test [4] was at most 0.016 µg/mL. Further, the Plasma MIC in test [5] is 0.063 µg/mL. Besides, in test [6], the MIC50 was found to be 1 µg/mL (≈ 2.32 µM) and the MIC90 was 1 µg/mL (≈ 2.32 µM).
`C[C@@H](O)[C@H]1C(=O)N2C(C(=O)O)=C(c3cc(C(=N)N)c4oc5ccccc5c4c3)C[C@H]12`: the MIC50 in test [1] and in test [6] was 1 µg/mL (≈ 2.47 µM) in each case. In addition, the MIC90 in test [1] and in test [6] was 2 µg/mL (≈ 4.93 µM) throughout. The compound further gave a PPB in test [2] of 71%. In test [3], the ED50 (usually the midpoint of the dose-response relation) is below 0.096 mg/kg. Further, the MIC in test [4] came to 0.031 µg/mL (≈ 0.0765 µM). In test [5], the Plasma MIC was 0.031 µg/mL.
As for `C[C@@H](O)[C@H]1C(=O)N2C(C(=O)O)=C(c3cc(C#N)c4oc5ccccc5c4c3)C[C@H]12`, in test [1], the MIC50 is 1 µg/mL (≈ 2.57 µM) and the MIC90 stood at 1 µg/mL (≈ 2.57 µM). The same compound yielded a PPB in test [7] of 98%. Besides, the 50% effect level in test [3] (ED50) was put at a dose of 1.44 mg/kg. Also, the MIC in test [4] is below 0.016 µg/mL. In addition, the Plasma MIC in test [8] is above 32 µg/mL. In addition, in test [6], the MIC50 turned out to be 0.5 µg/mL (≈ 1.29 µM) and the MIC90 turned out to be 1 µg/mL (≈ 2.57 µM).
In test [1], `C[C@@H](O)[C@H]1C(=O)N2C(C(=O)O)=C(SCCNC=N)C[C@H]12` [IMIPENEM ANHYDROUS] gave an MIC50 above 128 µg/mL and an MIC90 above 128 µg/mL. In addition, the PPB in test [2] was below 5%. Besides, the ED50 in test [3] turned out to be 0.026 mg/kg. Further, in test [4], the MIC turned out to be 0.01 µg/mL (≈ 0.0334 µM). For the same compound, the Plasma MIC in test [5] turned out to be 0.014 µg/mL. In test [6], this compound yielded an MIC50 of 32 µg/mL (≈ 107 µM) and an MIC90 of 128 µg/mL (≈ 428 µM).
In test [1], `C[C@@H](O)[C@H]1C(=O)N2C(C(=O)O)=C(c3cc(C(N)=O)c4oc5ccccc5c4c3)C[C@H]12` had an MIC50 of 2 µg/mL (≈ 4.92 µM) and an MIC90 of 2 µg/mL (≈ 4.92 µM). The same compound had a PPB in test [2] of 95%. This compound also registered an ED50 in test [3] of 0.55 mg/kg. This compound also displayed an MIC in test [4] of 0.031 µg/mL (≈ 0.0763 µM). In test [8], the Plasma MIC turned out to be 1 µg/mL. For the same compound, in test [6], the MIC50 was determined as 0.5 µg/mL (≈ 1.23 µM) and the MIC90 is 1 µg/mL (≈ 2.46 µM).
On to `C[C@@H](O)[C@H]1C(=O)N2C(C(=O)[O-])=C(c3cc(C4=[N+](C)CCN4C)c4oc5ccccc5c4c3)C[C@H]12`, for which, in test [1], the MIC50 was 16 µg/mL (≈ 34.8 µM) and the MIC90 was 32 µg/mL (≈ 69.6 µM). In test [6], the MIC50 was 8 µg/mL (≈ 17.4 µM) and the MIC90 was found to be 32 µg/mL (≈ 69.6 µM).
For `C[C@@H](O)[C@H]1C(=O)N2C(C(=O)[O-])=C(c3cc(-c4n(C)cc[n+]4C)c4oc5ccccc5c4c3)C[C@H]12`, in test [1], the MIC50 amounted to 8 µg/mL (≈ 17.5 µM) and the MIC90 was 16 µg/mL (≈ 35 µM). In test [6], this compound returned an MIC50 of 4 µg/mL (≈ 8.74 µM) and an MIC90 of 8 µg/mL (≈ 17.5 µM).
For the compound `C[C@@H](O)[C@H]1C(=O)N2C(C(=O)O)=C(c3cc(C4=NCCN4C)c4oc5ccccc5c4c3)C[C@H]12`, in test [1], the MIC50 came to 2 µg/mL (≈ 4.49 µM) and the MIC90 came to 4 µg/mL (≈ 8.98 µM). In test [6], this compound came in with an MIC50 of 2 µg/mL (≈ 4.49 µM) and an MIC90 of 4 µg/mL (≈ 8.98 µM).
As for `C[C@@H](O)[C@H]1C(=O)N2C(C(=O)O)=C(c3ccc4oc5ccccc5c4c3)C[C@H]12`, the MIC50 in test [1] was 4 µg/mL (≈ 11 µM); in test [6] it was 2 µg/mL (≈ 5.5 µM). Besides, the MIC90 in test [1] was found to be 8 µg/mL (≈ 22 µM); in test [6], 4 µg/mL (≈ 11 µM).
In test [1], `CN[C@H](CC(C)C)C(=O)N[C@H]1C(=O)N[C@@H](CC(N)=O)C(=O)N[C@H]2C(=O)N[C@H]3C(=O)N[C@H](C(=O)N[C@H](C(=O)O)c4cc(O)cc(O)c4-c4cc3ccc4O)[C@H](O)c3ccc(c(Cl)c3)Oc3cc2cc(c3O[C@@H]2O[C@H](CO)[C@@H](O)[C@H](O)[C@H]2O[C@H]2C[C@](C)(N)[C@H](O)[C@H](C)O2)Oc2ccc(cc2Cl)[C@H]1O` [VANCOMYCIN] had an MIC50 of 4 µg/mL (≈ 2.76 µM) and an MIC90 of 8 µg/mL (≈ 5.52 µM). Besides, in test [6], the MIC50 was 1 µg/mL (≈ 0.69 µM) and the MIC90 amounted to 2 µg/mL (≈ 1.38 µM).
In test [1], `C[C@@H](O)[C@H]1C(=O)N2C(C(=O)O)=C(c3cc(C(=N)N(C)C)c4oc5ccccc5c4c3)C[C@H]12` registered an MIC50 of 4 µg/mL (≈ 9.23 µM) and an MIC90 of 8 µg/mL (≈ 18.5 µM). In test [6], this compound displayed an MIC50 of 2 µg/mL (≈ 4.61 µM) and an MIC90 of 8 µg/mL (≈ 18.5 µM).
As to `CNC(=N)c1cc(C2=C(C(=O)O)N3C(=O)[C@H]([C@@H](C)O)[C@H]3C2)cc2c1oc1ccccc12`, the MIC50 was determined as 2 µg/mL (≈ 4.77 µM) in test [1] and 1 µg/mL (≈ 2.38 µM) in test [6]. Moreover, the MIC90 in test [1] came out at 2 µg/mL (≈ 4.77 µM); in test [6], 4 µg/mL (≈ 9.54 µM).
With `C[C@@H](O)[C@H]1C(=O)N2C(C(=O)O)=C(c3cc(C4=NCCCN4)c4oc5ccccc5c4c3)C[C@H]12`, in test [1], the MIC50 amounted to 2 µg/mL (≈ 4.49 µM) and the MIC90 came to 4 µg/mL (≈ 8.98 µM). Also, in test [6], the MIC50 amounted to 1 µg/mL (≈ 2.24 µM) and the MIC90 turned out to be 2 µg/mL (≈ 4.49 µM).
